In patent US12522607B2, “Substituted pyrazolo[3,4-d]pyrimidines as wee-1 inhibitors” (WIGEN BIOMEDICINE TECHNOLOGY (SHANGHAI) CO., LTD., priority 2020, dated 2026) one finds IC50 data, which are given here for 45 molecules.

Each structure is given as a SMILES string.

The target of one experiment is T1, Wee-1 kinase (Homo sapiens, UniProt P30291).
T1 construct: purchased Invitrogen
In words: Inhibitory activity against Wee-1 kinase (Lanthra Screen Wee-1 kinase kit, Tracer 178). It counts as binding. The following applies: Wee-1 kinase 5 nM, Tracer 178 50 nM, 1 h room temperature. How it is done:
Example 342. Assay for Inhibitory Activity of Compounds Against Wee-1 Kinase
The inhibitory activity of compounds against Wee-1 kinase was determined by using the Lanthra Screen Wee-1 kinase kit (Invitrogen). 5 μL of the compound diluted in a gradient with DMSO, 5 μL. of Wee-1 kinase (at a final concentration of 5 nM), 5 μL of an Eu-Anti-GST antibody (at a final concentration of 2 nM) mixture and 5 μL of kinase Tracer 178 (at a final concentration of 50 nM) were mixed well. The plate was read after incubation at room temperature for one hour. For comparison with the DMSO solvent control group, IC50 for the inhibition activity of the compounds against Wee-1 kinase was calculated.

A further experiment concerns HT29 cells. In words: Antiproliferative activity against HT29 cells (Cell Titer-Lumi, ATP content). It counts as cell-based. The following applies: Homo sapiens, HT-29, 72 after compound addition, read-out: HT-29 cells Anti-proliferative activity (IC50 for the inhibition against HT-29 cell growth). How it is done:
Example 343. Assay for Antiproliferative Activity Against HT29 Cells
3000 HT29 cells were seed in a 384-well plate (Fisher 142762). After the cells adhered to the wall overnight, the compounds diluted in a gradient were added. 72 later, Cell Titer-Lumi (Beyotime C0068XL) was added to determine the content of ATP in the cells. The growth of the cells was evaluated, and the IC50 for the inhibition of the compounds against cell growth was calculated.

In general, IC50 refers to the point on the concentration scale where inhibition reaches its midpoint.

T1 sequence (P30291 whole entry): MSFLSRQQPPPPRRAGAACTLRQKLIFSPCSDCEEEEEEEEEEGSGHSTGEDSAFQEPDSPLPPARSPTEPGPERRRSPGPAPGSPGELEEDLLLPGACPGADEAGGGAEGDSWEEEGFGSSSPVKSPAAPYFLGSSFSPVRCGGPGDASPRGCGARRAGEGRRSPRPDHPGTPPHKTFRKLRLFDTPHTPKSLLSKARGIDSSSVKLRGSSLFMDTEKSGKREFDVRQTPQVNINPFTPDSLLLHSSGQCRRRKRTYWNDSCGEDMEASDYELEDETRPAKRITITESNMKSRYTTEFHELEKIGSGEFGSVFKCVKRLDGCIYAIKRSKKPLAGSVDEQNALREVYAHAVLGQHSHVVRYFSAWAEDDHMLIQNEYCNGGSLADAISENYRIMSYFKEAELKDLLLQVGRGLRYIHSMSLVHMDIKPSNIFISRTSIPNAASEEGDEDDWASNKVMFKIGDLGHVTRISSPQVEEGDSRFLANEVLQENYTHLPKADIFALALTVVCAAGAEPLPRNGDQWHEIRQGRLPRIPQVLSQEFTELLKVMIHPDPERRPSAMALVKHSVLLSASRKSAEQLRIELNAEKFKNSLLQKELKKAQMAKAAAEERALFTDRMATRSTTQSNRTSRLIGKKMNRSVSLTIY

On to `C=CCn1c(=O)c2cnc(Nc3ccc4c(N5CCN(C(C)C)CC5)c[nH]c4c3)nc2n1-c1ccc(=O)n(C(C)C)n1` [Compound 262], for which the concentration for half-maximal inhibition (IC50) on Wee-1 kinase is not above 30 nM; with HT29 cells, not above 1000 nM.
For the molecule `C=CCn1c(=O)c2cnc(Nc3ccc(N4CCC(N5CCC5)CC4)c(OC)c3)nc2n1-c1ccc(=O)n(C(C)C)n1` [Compound 88], the figures for the IC50 on Wee-1 kinase and with HT29 cells were not above 30 nM and not above 1000 nM, respectively.
The like results for `C=CCn1c(=O)c2cnc(Nc3ccc(N4CC[C@@H](N(C)C)C4)cc3)nc2n1-c1ccc(=O)n(C(C)C)n1` [Compound 95] were, in that order, not above 30 nM and not above 1000 nM.
For `C=CCn1c(=O)c2cnc(Nc3ccc(N4CCN(CC)CC4)cc3)nc2n1-c1ccc(=O)n(C(C)C)n1` [Compound 32], in that order: not above 30 nM and not above 1000 nM.
In the case of `C=CCn1c(=O)c2cnc(Nc3ccc4c(c3)CN(C)C4)nc2n1-c1ccc(=O)n(C(C)C)n1` [Compound 222], the IC50 against Wee-1 kinase was not above 30 nM; with HT29 cells it was not above 1000 nM.
For `C=CCn1c(=O)c2cnc(Nc3ccc(N4CCC5(CCNCC5)CC4)cc3)nc2n1-c1ccc(=O)n(C(C)C)n1` [Compound 181], the IC50 on Wee-1 kinase is not above 30 nM; with HT29 cells it was 1000 to 3000 nM.
For the molecule `C=CCn1c(=O)c2cnc(Nc3cc(C)c(N4CCN(C)CC4)c(F)c3)nc2n1-c1ccc(=O)n(C(C)C)n1` [Compound 56], the IC50 against Wee-1 kinase was not above 30 nM; in the experiment with HT29 cells, not above 1000 nM.
For `CCn1c(=O)c2cnc(Nc3ccc(N4CCN(C)CC4)cc3)nc2n1-c1cc(F)c(=O)n(C(C)C)c1` [Compound 315], in that order: not above 30 nM and not above 1000 nM.
For `CCn1c(=O)c2cnc(Nc3ccc(C4CCN(C)CC4)c(C)c3)nc2n1-c1ccc(=O)n(C(C)(C)C)c1` [Compound 332], in that order: not above 30 nM and not above 1000 nM.
For `C=CCn1c(=O)c2cnc(Nc3ccc(N4CCN[C@H](C)C4)c(C)c3)nc2n1-c1ccc(=O)n(C(C)C)n1` [Compound 133], in that order: not above 30 nM and not above 1000 nM.
As to `C=CCn1c(=O)c2cnc(Nc3ccc(N4CCN(C)CC4)c(OC)c3)nc2n1-c1cc(F)c(=O)n(C(C)C)c1` [Compound 311], the figures for the IC50 against Wee-1 kinase and with HT29 cells were not above 30 nM and not above 1000 nM, respectively.
For `C=CCn1c(=O)c2cnc(Nc3ccc(N4CC[C@@H](N(C)C)C4)c(C)c3)nc2n1-c1ccc(=O)n(C(C)C)n1` [Compound 96], in that order: not above 30 nM and not above 1000 nM.
The like results for `C=CCn1c(=O)c2cnc(Nc3cc(N4CCC(N(C)C)CC4)c4ccn(C5CC5)c4c3)nc2n1-c1ccc(=O)n(C(C)C)n1` [Compound 260] were, in that order, not above 30 nM and not above 1000 nM.
Take `C=CCn1c(=O)c2cnc(Nc3ccc4c(C5CCN(C)CC5)c[nH]c4c3)nc2n1-c1ccc(=O)n(C(C)C)n1` [Compound 267]: the IC50 was not above 30 nM at Wee-1 kinase and not above 1000 nM with HT29 cells.
For the molecule `C=CCn1c(=O)c2cnc(Nc3ccc(N4C[C@@H](C)N[C@@H](C)C4)c(C)c3)nc2n1-c1ccc(=O)n(C(C)C)n1` [Compound 118], the IC50 against Wee-1 kinase was not above 30 nM; with HT29 cells, not above 1000 nM.
For `C=CCn1c(=O)c2cnc(Nc3ccc(N4CCN(C)CC4)c(F)c3)nc2n1-c1ccc(=O)n(C(C)C)n1` [Compound 44], in that order: not above 30 nM and not above 1000 nM.
For `CCn1c(=O)c2cnc(Nc3ccc4c(c3)CN(C)CC43CC3)nc2n1-c1cc(F)c(=O)n(C(C)C)c1` [Compound 318], the figures for the IC50 against Wee-1 kinase and with HT29 cells were not above 30 nM and not above 1000 nM, respectively.
For `C=CCn1c(=O)c2cnc(Nc3ccc4c(c3)C3(CC3)CN(C)C4)nc2n1-c1ccc(=O)n(C(C)C)n1` [Compound 235], in that order: not above 30 nM and not above 1000 nM.
The like results for `C=CCn1c(=O)c2cnc(Nc3ccc(N4CCN(C)CC4)cc3)nc2n1-c1ccc(=O)n(C2CCC2)n1` [Compound 12] were, in that order, not above 30 nM and not above 1000 nM.
As for `CCn1c(=O)c2cnc(Nc3ccc(N4CCN(C)CC4)c(C)c3)nc2n1-c1ccc(=O)n(C(C)(C)C)c1` [Compound 331], the IC50 was not above 30 nM against Wee-1 kinase and not above 1000 nM with HT29 cells.
The like results for `C=CCn1c(=O)c2cnc(Nc3cc(C)c(N4CCN(C)CC4)c(Cl)c3)nc2n1-c1ccc(=O)n(C(C)C)n1` [Compound 58] were, in that order, not above 30 nM and not above 1000 nM.
For `C=CCn1c(=O)c2cnc(Nc3ccc(N4CC[C@H](N(C)C)C4)c(C)c3)nc2n1-c1ccc(=O)n(C(C)C)n1` [Compound 93], in that order: not above 30 nM and not above 1000 nM.
As to `C=CCn1c(=O)c2cnc(Nc3cc(OC)cc(C4CCNCC4)c3)nc2n1-c1ccc(=O)n(C(C)C)n1` [Compound 212], the IC50 is not above 30 nM against Wee-1 kinase and not above 1000 nM with HT29 cells.
With `C=CCn1c(=O)c2cnc(Nc3ccc4c(N5CCN(C)CC5)cn(C)c4c3)nc2n1-c1ccc(=O)n(C(C)C)n1` [Compound 264], the IC50 on Wee-1 kinase is not above 30 nM; in the experiment with HT29 cells, not above 1000 nM.
Consider `C=CCn1c(=O)c2cnc(Nc3ccc(N(C)CCN(C)C)nc3)nc2n1-c1ccc(=O)n(C(C)C)n1` [Compound 246], for which the IC50 against Wee-1 kinase was not above 30 nM; in the experiment with HT29 cells, not above 1000 nM.
The like results for `C=CCn1c(=O)c2cnc(Nc3ccc4c(N5CCN(C(C)C)CC5)cn(C)c4c3)nc2n1-c1ccc(=O)n(C(C)C)n1` [Compound 265] were, in that order, not above 30 nM and not above 1000 nM.
For `C=CCn1c(=O)c2cnc(Nc3ccc(N4CCN(C)CC4)cc3)nc2n1-c1ccc(=O)n(CC(F)(F)F)n1` [Compound 8], in that order: 30 to 100 nM and 1000 to 3000 nM.
As for `C=CCn1c(=O)c2cnc(Nc3ccc(N4CCNCC4)c(CC(F)(F)F)c3)nc2n1-c1ccc(=O)n(C(C)C)n1` [Compound 53], the IC50 is not above 30 nM at Wee-1 kinase and not above 1000 nM in the experiment on HT29 cells.
For `C=CCn1c(=O)c2cnc(Nc3ccc(N4CCN(C)CC4)cc3)nc2n1-c1cc(C(F)F)c(=O)n(C(C)C)c1` [Compound 26], in that order: not above 30 nM and not above 1000 nM.
For `CCn1c(=O)c2cnc(Nc3ccc(N4CCN(C)CC4)cc3)nc2n1-c1ccc(=O)n(C(C)C)c1` [Compound 299], in that order: not above 30 nM and not above 1000 nM.
For `C=CCn1c(=O)c2cnc(Nc3ccc(N4CCN(C)CC4)cc3)nc2n1-c1cc(C)c(=O)n(C(C)C)n1` [Compound 22], the IC50 on Wee-1 kinase was not above 30 nM; in the experiment on HT29 cells, not above 1000 nM.
With `C=CCn1c(=O)c2cnc(Nc3ccc(N4CCC5(CCNCC5)CC4)c(C)c3)nc2n1-c1ccc(=O)n(C(C)C)n1` [Compound 182], the IC50 was not above 30 nM against Wee-1 kinase and not above 1000 nM in the experiment with HT29 cells.
Turning to `C=CCn1c(=O)c2cnc(Nc3ccc(N4C[C@@H](C)N[C@@H](C)C4)c(C(F)(F)F)c3)nc2n1-c1ccc(=O)n(C(C)C)n1` [Compound 122], the results for the IC50 against Wee-1 kinase and in the experiment on HT29 cells were not above 30 nM and not above 1000 nM, respectively.
For `C=CCn1c(=O)c2cnc(Nc3ccc4c(c3)CN(C)CC4(F)F)nc2n1-c1ccc(=O)n(C(C)C)n1` [Compound 241], the IC50 was not above 30 nM on Wee-1 kinase and not above 1000 nM in the experiment on HT29 cells.
For the molecule `CC(C)n1c(=O)c2cnc(Nc3ccc(N4CCN(C)CC4)cc3)nc2n1-c1ccc(=O)n(C(C)(C)C)c1` [Compound 334], the IC50 on Wee-1 kinase is not above 30 nM; in the experiment on HT29 cells it was not above 1000 nM.
The like results for `CCn1c(=O)c2cnc(Nc3ccc(N4CCN(C)CC4)c(C)c3)nc2n1-c1ccc(=O)n(C(C)C)c1` [Compound 300] were, in that order, not above 30 nM and not above 1000 nM.
In the case of `C=CCn1c(=O)c2cnc(Nc3ccc(N4CC5(CCNC5)C4)c(OC)c3)nc2n1-c1ccc(=O)n(C(C)C)n1` [Compound 162], the half-maximal inhibitory concentration (IC50) was not above 30 nM on Wee-1 kinase and not above 1000 nM with HT29 cells.
With `C=CCn1c(=O)c2cnc(Nc3cc(N4CCN(C)CC4)c4cc[nH]c4c3)nc2n1-c1ccc(=O)n(C(C)C)n1` [Compound 252], the IC50 against Wee-1 kinase was not above 30 nM; with HT29 cells it was not above 1000 nM.
For `C=CCn1c(=O)c2cnc(Nc3cc(OC)c(N4CCN(C)CC4)cn3)nc2n1-c1ccc(=O)n(C(C)C)n1` [Compound 249], in that order: not above 30 nM and not above 1000 nM.
The like results for `C=CCn1c(=O)c2cnc(Nc3ccc4c(c3)CCN(C)C4)nc2n1-c1ccc(=O)n(C(C)C)n1` [Compound 229] were, in that order, not above 30 nM and not above 1000 nM.
The like results for `C=CCn1c(=O)c2cnc(Nc3ccc(C4(C)CCN(C)CC4)cc3)nc2n1-c1ccc(=O)n(C(C)C)n1` [Compound 201] were, in that order, not above 30 nM and not above 1000 nM.
On to `C=CCn1c(=O)c2cnc(Nc3ccc(N4CCN(C5COC5)CC4)cc3)nc2n1-c1ccc(=O)n(C(C)C)n1` [Compound 35], for which the concentration for half-maximal inhibition (IC50) is not above 30 nM on Wee-1 kinase and not above 1000 nM with HT29 cells.
For `C=CCn1c(=O)c2cnc(Nc3ccc4cc(N5CCN(C)CC5)cnc4c3)nc2n1-c1ccc(=O)n(C(C)C)n1` [Compound 219], in that order: not above 30 nM and not above 1000 nM.
As for `C=CCn1c(=O)c2cnc(Nc3ccc(N4CC5(CNC5)C4)c(OC)c3)nc2n1-c1ccc(=O)n(C(C)C)n1` [Compound 156], the IC50 on Wee-1 kinase is not above 30 nM; with HT29 cells, 1000 to 3000 nM.
The like results for `C=CCn1c(=O)c2cnc(Nc3ccc4c(c3)CN(C)CC4)nc2n1-c1ccc(=O)n(C(C)C)n1` [Compound 226] were, in that order, not above 30 nM and not above 1000 nM.
